Results from paper PMC7478253, “Design, synthesis, and SAR study of isopropoxy allylbenzene derivatives as 15-lipoxygenase inhibitors” (Iranian Journal of Basic Medical Sciences, 2020).
“Also recorded” adds a separate entry of the source. Where two headings read alike, the source gives them in different places.

Legend:
[1] = biological target: T1, soybean 15-lipoxygenase (SLO; L1; Type I-B; EC 1,13,11,12) (Glycine max, UniProt P08170); test: SLO enzyme inhibition, peroxide-formation method (substrate linoleic acid); format: biochemical
T1 construct: purchased Sigma Co
T1 sequence (P08170 1-839): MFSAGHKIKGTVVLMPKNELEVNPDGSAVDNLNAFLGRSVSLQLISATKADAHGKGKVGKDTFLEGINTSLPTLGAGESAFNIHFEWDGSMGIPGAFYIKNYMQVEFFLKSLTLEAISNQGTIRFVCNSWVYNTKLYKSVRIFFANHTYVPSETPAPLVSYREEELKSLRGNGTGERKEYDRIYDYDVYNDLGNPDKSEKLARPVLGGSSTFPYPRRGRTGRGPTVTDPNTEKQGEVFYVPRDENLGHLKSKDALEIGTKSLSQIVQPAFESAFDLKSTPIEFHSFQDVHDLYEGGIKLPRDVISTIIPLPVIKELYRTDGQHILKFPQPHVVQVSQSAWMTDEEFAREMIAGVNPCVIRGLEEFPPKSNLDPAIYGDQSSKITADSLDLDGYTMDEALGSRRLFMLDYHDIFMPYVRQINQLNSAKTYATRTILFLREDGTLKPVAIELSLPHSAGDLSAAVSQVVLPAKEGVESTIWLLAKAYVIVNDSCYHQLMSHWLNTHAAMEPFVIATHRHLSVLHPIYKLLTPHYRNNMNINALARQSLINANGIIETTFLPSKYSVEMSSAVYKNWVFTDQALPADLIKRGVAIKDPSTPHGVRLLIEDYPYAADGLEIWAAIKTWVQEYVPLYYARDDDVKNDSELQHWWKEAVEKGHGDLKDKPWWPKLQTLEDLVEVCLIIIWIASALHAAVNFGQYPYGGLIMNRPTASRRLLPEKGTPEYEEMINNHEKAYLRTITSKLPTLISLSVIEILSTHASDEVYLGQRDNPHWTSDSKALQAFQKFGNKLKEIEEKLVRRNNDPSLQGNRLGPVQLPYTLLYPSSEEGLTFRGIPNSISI
Description: LA, enzyme and two assay solutions (A and B) were firstly prepared as follow:
LA solution: A mixture of LA (5.6 mg), ethanol (0.5 ml) and KOH (100 mM) to a final volume of 5 ml (6).
The enzyme solution was prepared by dissolving 1 mg lyophilized SLO (L1; Type I-B; EC 1, 13, 11, 12; Sigma Co.) in 5 ml phosphate buffer (50 mM, pH 7.0) and then its activity was checked by diene formation method at 234 nm. Finally, its activity was decreased to desired quantity by dilution with the phosphate buffer.
Solution A: DMAB (3-dimethylaminobenzoic acid) 50 mM in phosphate buffer (100 mM, pH 7.0).
Solution B: A mixture of MBTH (3-methyl-2-benzothiazolonhydrazone) (10 mM, 3 ml) and hemoglobin (5 mg/ml, 3 ml) in 25 ml phosphate buffer (50 mM, pH 5.0).
Assay procedure: the sample solution in dimethyl sulfoxide (25 µl), enzyme solution (4000 units/ml; 25 µl), and phosphate buffer (pH 7.0, 50 mM; 900 µl) were mixed in a test plate and pre-incubated for 5 min at room temperature. Control test was done using the same volume of dimethyl sulfoxide. After pre-incubation, LA solution (50 µl) was added (starting of the peroxidation reaction) and 10 min later, solution A (270 µl) and subsequently solution B (130 µl) were added to start the color formation. 3 min later, 200 µl of sodium dodecyl sulfate solution (2% W/V) was added to terminate the reaction. The absorbance was recorded at 598 nm. Each experiment was performed in triplicate. The data analysis was done in GraphPad Prism 6.0 ([6]).
Lipoxygenase inhibitory activity of the synthetic compounds (substrate: linoleic acid) was assessed by using the peroxide-formation method, according to the published literature ([14], [15]). In this method, measurement of linoleate hydroperoxide concentration is the basis of lipoxygenase activity determination. All the assessments were performed in comparison with 4-MMPB (4-methyl-2-(4-methylpiperazinyl)pyrimido[4,5-b]benzothiazine) as a well-known lipoxygenase inhibitor.

[2] = biological target: T2, soybean 15-lipoxygenase (SLO) (Glycine max, UniProt P08170); test: Inhibitory mechanism of SLO inhibition (Michaelis-Menten / Lineweaver-Burk); format: biochemical; settings: Tris buffer pH 7.2; LA 6.25-100 µM; inhibitor 125, 100 and 75 µM; Lineweaver-Burk plot
T2 construct: purchased Sigma Co
T2 sequence (P08170 1-839): T1 sequence (P08170 1-839)
Description: The experiment was done in Tris buffer (pH 7.2, 50 mM). Five concentrations of LA (6.25, 12.5, 25, 50 and 100 µM) were used. The enzyme activity was measured in the absence (control test) and presence of 6f as inhibitor (concentrations 125, 100, and 75 µM).
25 µl of the enzyme solution (4000 unit/ml) was added to mixture of buffer (900 µl) and inhibitor (25 µl) and incubated for 10 min at room temperature. Subsequently, 50 µl of LA solution was added to the mixture to start the reaction. After 10 min, solution A (270 µl) and then solution B (130 µl) were added to start color formation (preparation of solution A and B described in the previous section). 3 min later, 200 µl of a 2% SDS solution was added to terminate the reaction. The absorbance was recorded at 598 nm compared with the control. These experiments were performed in triplicate. Using the reaction rates (Abs.min^-1), both inhibitor and LA concentrations (µM), Michaelis-Menten and Lineweaver-Burk plots were graphed in GraphPad Prism 6.0.
So molecular docking by AutoDockTools could be responsible for finding the probable binding conformation of the inhibitors in active site pocket of SLO.

[3] = biological target: T1, soybean 15-lipoxygenase (SLO; L1; Type I-B; EC 1,13,11,12); settings: cited from earlier work
[4] = substrate linoleic acid, phosphate buffer pH 7.0, absorbance 598 nm, triplicate, read-out: IC50 (SLO inhibition)

Row | melting point | IC50 [1, 4] | SMILES | further results
1 | 78 to 79 °C | 45.5 ± 8.1 µM | C=CCc1cc(NC(=O)C2CC2)ccc1OC(C)C [Compound 6a, N-(3-allyl-4-isopropoxyphenyl) cyclopropane carboxamide] | –
2 | 81 to 83 °C | 25.2 ± 2.1 µM | C=CCc1cc(NC(=O)C2CCC2)ccc1OC(C)C [Compound 6b, N-(3-allyl-4-isopropoxyphenyl) cyclobutane carboxamide] | –
3 | 88 to 89 °C | 9.27 ± 1.9 µM | C=CCc1cc(NC(=O)C2CCCC2)ccc1OC(C)C [Compound 6c, N-(3-allyl-4-isopropoxyphenyl) cyclopentane carboxamide] | –
4 | 93 to 95 °C | 3.56 ± 0.21 µM | C=CCc1cc(NC(=O)C2CCCCC2)ccc1OC(C)C [Compound 6d, N-(3-allyl-4-isopropoxyphenyl) cyclohexane carboxamide] | –
5 | 128 to 130 °C | > 100 µM | C=CCc1cc(NC(=O)c2ccccc2)ccc1OC(C)C [Compound 6e, N-(3-allyl-4-isopropoxyphenyl) benzamide] | SLO inhibition, result in words ([1]; substrate linoleic acid): no effect; also recorded: did not show any activity
6 | – | – | C=CCc1cc(NC(=O)C23CC4CC(CC(C4)C2)C3)ccc1OC(C)C [Compound 6f, N-(3-allyl-4-isopropoxyphenyl) adamantane carboxamide] | Inhibitory mechanism on SLO [2]: competitive mechanism; IC50 [1]: 1.35 ± 0.08 µM
7 | – | – | C=CCOc1ccc(NC(=O)C23CC4CC(CC(C4)C2)C3)cc1CC=C [Compound A1, N-(3-allyl-4-(allyloxy)phenyl) adamantanecarboxamide] | IC50 ([3]; previous work on N-(3-allyl-4-(allyloxy)phenyl) carboxamides, read-out: IC50 (lipoxygenase inhibition) of A1): 9.8 ± 1.2 µM
8 | – | – | C=CCc1cc(OC)ccc1OC(C)C [Compound A2, 2-allyl-1-isopropoxy-4-methoxybenzene] | IC50 ([3]; previous work on 2-alkoxy-5-methoxyallylbenzenes, read-out: IC50 (lipoxygenase inhibition) of A2): 5.9 ± 0.6 µM
